In test [1] the target is PCP recognition sites. In words: [3H]TCP radioreceptor assay (internal screen), binding to PCP recognition sites in rat whole brain membranes. Further details: species or system rat (male Sprague-Dawley). Conditions: 25 min, room temperature; for Ki: approx. 1 nM [3H]TCP, mean of at least two separate determinations. As for the experimental part:
[^3 H]TCP binding to PCP recognition sites was performed as described by Vignon et al. Brain Research 1983, 280, 194-197. Male Sprague-Dawley rats were sacrificed by decapitation, and whole brains were homogenized in 10 volumes (wt/vol) of cold Tris-HCl buffer (50 mM, pH 7.7) using a Brinkmann Polytron (setting 6, 30 sec). The homogenate was centrifuged at 40,000×g for 10 min at 4° C. The supernatant was decanted, and the homogenization and centrifugation steps were repeated twice as described above. Following this, the pellet was resuspended in Tris-HCl (5 mM, pH 7.7) at a tissue concentration of 0.5-0.75 g/ml, and one ml aliquots were frozen at -70° C. until use. The binding characteristics for PCP recognition sites were not altered by the freezing of membrane suspensions.
On the day of the assay, membrane aliquots were thawed, resuspended in fresh 5 mM Tris-HCl buffer at a tissue concentration of 1 mg/ml, and stored on ice until use. Each assay tube contained 100 μl of [^3 H]TCP at a final concentration of approximately 1 nM, 100 μl of various concentrations of the compounds of interest, 500 μl of the tissue suspension and 300 μl of buffer to a final assay volume of 1 ml and a final protein concentration of 0.5 mg/tube. Non-specific binding was defined by addition of a final concentration of 100 μM PCP to blank tubes. All tubes were incubated at room temperature for 25 min before termination of the reaction by rapid filtration over Whatman GF/B glass fiber filters that had been presoaked in a solution of 0.5% polyethylenimine for at least 1 hr prior to use. Filters were washed with three 4 ml volumes of cold Tris buffer. Following addition of scintillation cocktail, the amount of bound radioactivity was determined by liquid scintillation spectrometry using a Beckman LS 5000TA liquid scintillation counter with an efficiency for tritium of approximately 55%. Inhibition constants (Ki values) were calculated using the EBDA/LIGAND program (McPherson, J. Pharmacol. Meth. 1985, 14, 213-228), purchased from Elsevier/Biosoft, Inc. Results are reported as Ki values which are expressed as the mean of at least two separate determinations; or as a percent (%) inhibition of binding at 10 μM.

Test [2] concerns PCP recognition sites. In words: [3H]TCP radioreceptor assay (external screen), binding to PCP recognition sites in whole rat forebrain membranes. Conditions: 25° C., 60 min. On the procedure: A procedure similar to that described above, for the [^3 H]TCP radioreceptor assay (internal screen) was utilized except that the whole rat forebrain membranes were incubated at 25° C. for 60 minutes rather than at room temperature for 25 minutes, before termination of the reaction. The results are reported as a percent (%) inhibition of binding at 10 μM.

In test [3] the test system is NMDA-induced neurotoxicity in cultured cortical neurons. In words: Antagonism of NMDA-induced neurotoxicity in cultured cortical neurons (LDH release). The class given is cell-based, mouse (Swiss-Webster). Conditions: Mus musculus, Cortical neurone; 500 μM NMDA, 30 min exposure; LDH activity 24 h after removal of NMDA; day 13 cultured cortical neurons. On the procedure:
Pregnant, Swiss-Webster mice were obtained from Taconic Farms (Germantown, N.Y.) and sacrificed 16 days post conception. Fetuses were removed and placed in a sterile dish containing Hank's balanced salt solution (HBSS), pH 7.4. Brain cortices were dissected, meninges were removed, the tissue was minced and placed into a solution of HBSS containing 0.25% (w/v) trypsin at 37° C. for 15 minutes. Tissue was then triturated with a sterile pasteur pipet, diluted with minimal essential media (Gibco 330-1430), pH 7.4, supplemented with 10% horse serum, 10% fetal calf serum, 2 mM 1-glutamine, 21 mM d-glucose, 2.2 g/L sodium bicarbonate, 1000 U/ml penicillin, and 1,000 μg/ml streptomycin. Cells were plated onto Falcon primaria 96 well plates at a final density of 50,000 cells/well and incubated at 37° C. in the presence of 5% (v/v) carbon dioxide. After 5 days, plating media was replaced with maintenance media containing minimal essential media (Gibco 330-1430), pH 7.4, supplemented with 10% horse serum, 10% 1-glutamine, 21 mM d-glucose, 2.2 g/l sodium bicarbonate,1,000 U/ml penicillin, 1,000 μg/ml streptomycin, and 10 μM cytosine arabinoside. On days 7 and 10, media was replaced with maintenance media as above lacking the cytosine arabinoside. Experiments were conducted on day 13. […]

Consider 12 compounds from patent US5430036A, “6,11-substituted-6,11-dihydrobenzo[b]quinolizinium salts and compositions and method of use thereof” (Sterling Winthrop Inc., priority 1994, dated 1995).

Structures are written as SMILES.

As a reminder, the Ki is the equilibrium dissociation constant of an inhibitor or competing ligand from its target. Lower therefore signals higher affinity. As to `Brc1ccc2c(c1)C1c3cccc[n+]3C2C2CC=CC12` (centres unmarked) [4(c), 9-bromo-6,11[3',4']cyclopentenyl-6,11-dihydrobenzo[b]quinolizinium bromide], the Ki in test [1] worked out at 1.63 µM. On the same count and under the same terms, in the case of `Fc1ccc2c(c1)C1c3cccc[n+]3C2C2CC=CC12` (centres unmarked) [5(c), 9-fluoro-6,11[3',4']cyclopentenyl-6,11-dihydrobenzo-[b]quinolizinium perchlorate] it was 0.806 µM.

For `C1=CC2C3c4ccccc4C(C2C1)[n+]1ccccc13` (centres unmarked) [15(a), 6,11-[3',4']cyclopentenyl-6,11-dihydrobenzo[b]quinolizinium bromide], the “[3H]TCP (external screen) Percent Inhibition (%) @10 μM” value in test [2] is 92%. Besides, the affinity in test [1] corresponds to a Ki of 0.464 µM. For the compound `Cc1cccc2c1C1c3ccccc3C2c2cccc[n+]21` (centres unmarked) [15(d), 7-Methyl-6,11-benzeno-6,11-dihydrobenzo[b]quinolizinium perchlorate], the “[3H]TCP (external screen) Percent Inhibition (%) @10 μM” value in test [2] is given as 11%. Also, in test [1], the “[3H]TCP (internal screen) Percent Inhibition @10 μM” value was determined as 52%. Take `CC(C)=C1C=CC2C3c4ccccc4C(C12)[n+]1ccccc13` (centres unmarked) [14(b), 6,11-[5'-isopropylidene-[3',4']cyclopentenyl]-6,11-dihydrobenzo[b]quinolizinium perchlorate]: the affinity in test [1], expressed as Ki, was 0.367 µM. On to `C1=CC2C3c4ccccc4C(C2CC1)[n+]1ccccc13` (centres unmarked) [Example 1, 6,11[3',4']-cyclohexenyl-6,11-dihydrobenzo[b]quinolizinium bromide], for which the inhibition constant (Ki) in test [1] was 0.245 µM. Consider `CC(C)(C)c1ccc(O)c2c1C1c3ccccc3C2[n+]2ccccc21` (centres unmarked) [15(c), 7-Hydroxy-10-tert-butyl-6,11-benzeno-6,11-dihydrobenzo[b]quinolizinium perchlorate], for which the “[3H]TCP (external screen) Percent Inhibition (%) @10 μM” value in test [2] was 24%. The “[3H]TCP (internal screen) Percent Inhibition @10 μM” value in test [1] was 10%. With `O=[N+]([O-])c1cccc2c1C1c3ccccc3C2c2cccc[n+]21` (centres unmarked) [15(b), 7-Nitro-6,11-benzeno-6,11-dihydrobenzo[b]quinolizinium perchlorate], the “[3H]TCP (external screen) Percent Inhibition (%) @10 μM” value in test [2] came out at 9%. For the same compound, the “[3H]TCP (internal screen) Percent Inhibition @10 μM” value in test [1] is 37%. One may read the IC50 as the concentration that gives 50% inhibition. High values mean weaker potency, low ones greater potency. `c1ccc2c(c1)C1c3cccc[n+]3C2C2CCCC12` (centres unmarked) [Example 13(b), 6,11[1',2']cyclopentyl-6,11-dihydrobenzo[b]quinolizinium perchlorate.1/2 hydrate]: 8400 nM corresponded to half-maximal inhibition in test [3] (IC50). The same compound showed a Ki in test [1] (hydrate) of 0.366 µM. Turning to `c1ccc2c(c1)C1c3cccc[n+]3C2C2CCCC12` (centres unmarked) [Example 13(a), 6,11[1',2']cyclopentyl-6,11-dihydrobenzo[b]quinolizinium perchlorate.1/2 hydrate], in test [1] (hydrate), the inhibition constant Ki was determined as 1.56 µM.

As to `c1ccc2c(c1)C1c3cccc[n+]3C2C2CCOC12` (centres unmarked) [Example 8, 6,11[2',3']tetrahydrofuranyl-6,11-dihydrobenzo[b]-quinolizinium bromide], the affinity in test [1], expressed as Ki, was 8.49 µM. As to `CC12c3ccccc3C(c3cccc[n+]31)C1C=CCC12` (centres unmarked) [12(c), 6-methyl-6,11[3',4']cyclopentenyl-6,11-dihydrobenzo[b]quinolizinium perchlorate, .1/2 H2 O], the Ki in test [1] came to 0.0934 µM.
